This note sets out measurements from ChEMBL document CHEMBL1629671, “Activity of posaconazole and other antifungal agents against Mucorales strains identified by sequencing of internal transcribed spacers” (2009).

Common to all, as to format: functional
Assay [1] concerns Rhizopus arrhizus. Briefly: Antifungal activity against Rhizopus oryzae after 48 hrs by microdilution method. On the technique in general: Dilution methods test growth across graded concentrations, often in twofold steps.
Assay [2] is described as follows: Antifungal activity against Rhizomucor variabilis after 24 hrs by microdilution method.
Assay [3] in a line: Antifungal activity against Rhizomucor variabilis after 48 hrs by microdilution method.
In assay [4] the test system is Cunninghamella. Kind of assay: Antifungal activity against Cunninghamella spp. after 24 hrs by microdilution method.
Assay [5] has as its system Lichtheimia corymbifera. Briefly: Antifungal activity against Mycocladus corymbifer after 48 hrs by microdilution method.
In assay [6] the test system is Rhizopus arrhizus. Briefly: Antifungal activity against Rhizopus oryzae after 24 hrs by microdilution method.
For assay [7], the system named is Actinomucor. Kind of assay: Antifungal activity against Actinomucor spp. after 48 hrs by microdilution method.
The nature of assay [8]: Antifungal activity against Rhizomucor pusillus after 24 hrs by microdilution method.
Assay [9] relates to Apophysomyces. Briefly: Antifungal activity against Apophysomyces spp. after 48 hrs by microdilution method.
A short description of assay [10]: Antifungal activity against Rhizopus microsporus after 24 hrs by microdilution method.
For assay [11], the system named is Mucor circinelloides. Briefly: Antifungal activity against Mucor circinelloides after 48 hrs by microdilution method.
Assay [12] relates to Cunninghamella bertholletiae. Briefly: Antifungal activity against Cunninghamella bertholletiae after 24 hrs by microdilution method.
For assay [13], the system named is Apophysomyces. Kind of assay: Antifungal activity against Apophysomyces spp. after 24 hrs by microdilution method.
Assay [14] relates to Mucor circinelloides. Kind of assay: Antifungal activity against Mucor circinelloides after 24 hrs by microdilution method.
The nature of assay [15]: Antifungal activity against Rhizomucor pusillus after 48 hrs by microdilution method.
Assay [16] deals with Lichtheimia corymbifera. Kind of assay: Antifungal activity against Mycocladus corymbifer after 24 hrs by microdilution method.
For assay [17], the system named is Actinomucor. Kind of assay: Antifungal activity against Actinomucor spp. after 24 hrs by microdilution method.
For assay [18], the system named is Cunninghamella. Kind of assay: Antifungal activity against Cunninghamella spp. after 48 hrs by microdilution method.
Assay [19] concerns Cunninghamella bertholletiae. Kind of assay: Antifungal activity against Cunninghamella bertholletiae after 48 hrs by microdilution method.
A short description of assay [20]: Antifungal activity against Rhizopus microsporus after 48 hrs by microdilution method.

In brackets after ≈: the same amount, converted by molar mass.

One may read the MIC as the smallest concentration in the dilution series that meets the test's criterion for growth inhibition. A high value points to a less susceptible organism.

Take `CN(C/C=C/C#CC(C)(C)C)Cc1cccc2ccccc12` [TERBINAFINE]: the MIC was 32 µg/mL (≈ 110 µM) with Rhizopus arrhizus [1]; 32 µg/mL (≈ 110 µM) in [2]; 32 µg/mL (≈ 110 µM) in assay [3]; 0.13 µg/mL (≈ 0.446 µM) in the assay on Cunninghamella [4]; 1 µg/mL (≈ 3.43 µM) with Lichtheimia corymbifera [5]; 24.2 µg/mL (≈ 83.2 µM) against Rhizopus arrhizus [6]. Also, the MIC against Actinomucor [7] came to 0.36 µg/mL (≈ 1.24 µM); in assay [8] it was 0.22 µg/mL (≈ 0.755 µM); in the assay with Apophysomyces [9], 2 µg/mL (≈ 6.86 µM); in [10], 0.71 µg/mL (≈ 2.44 µM); in the assay with Mucor circinelloides [11], 32 µg/mL (≈ 110 µM); in assay [12], 0.4 µg/mL (≈ 1.37 µM). The MIC with Apophysomyces [13] came out at 2 µg/mL (≈ 6.86 µM); in the assay with Mucor circinelloides [14], 21.5 µg/mL (≈ 73.9 µM); in assay [15], 0.33 µg/mL (≈ 1.13 µM); against Lichtheimia corymbifera [16] it was 0.5 µg/mL (≈ 1.72 µM); against Actinomucor [17] it was 0.125 µg/mL (≈ 0.429 µM); against Cunninghamella [18], 0.18 µg/mL (≈ 0.618 µM). The MIC is 0.49 µg/mL (≈ 1.68 µM) in assay [19] and 1.41 µg/mL (≈ 4.84 µM) in assay [20].

Take `C[C@@H](c1nc(-c2ccc(C#N)cc2)cs1)[C@](O)(Cn1cncn1)c1ccc(F)cc1F` [RAVUCONAZOLE]: the MIC came to 1.32 µg/mL (≈ 3.02 µM) with Rhizopus arrhizus [1]; 8 µg/mL (≈ 18.3 µM) in [2]; 16 µg/mL (≈ 36.6 µM) in assay [3]; 1 µg/mL (≈ 2.29 µM) in the assay on Cunninghamella [4]; 2 µg/mL (≈ 4.57 µM) in the assay with Lichtheimia corymbifera [5]; 1 µg/mL (≈ 2.29 µM) against Rhizopus arrhizus [6]. Further, the minimal inhibitory concentration (MIC) in the assay with Actinomucor [7] came to 0.5 µg/mL (≈ 1.14 µM); in assay [8], 0.66 µg/mL (≈ 1.51 µM); in the assay on Apophysomyces [9], 4 µg/mL (≈ 9.14 µM); in assay [10], 0.89 µg/mL (≈ 2.03 µM); against Mucor circinelloides [11] it was 13.1 µg/mL (≈ 30 µM); in assay [12], 8 µg/mL (≈ 18.3 µM). Besides, the minimal inhibitory concentration (MIC) in the assay on Apophysomyces [13] stood at 2 µg/mL (≈ 4.57 µM); with Mucor circinelloides [14], 11.9 µg/mL (≈ 27.2 µM); in assay [15], 0.87 µg/mL (≈ 1.99 µM); with Lichtheimia corymbifera [16] it was 1.22 µg/mL (≈ 2.79 µM); in the assay on Actinomucor [17], 0.25 µg/mL (≈ 0.571 µM); in the assay with Cunninghamella [18] it was 8 µg/mL (≈ 18.3 µM). Moreover, the results for the MIC in assay [19] and in assay [20] were 12.1 µg/mL (≈ 27.7 µM) and 1.78 µg/mL (≈ 4.07 µM), respectively.

`C[C@@H]1[C@H](O)[C@@H](C)/C=C/C=C/C=C/C=C/C=C/C=C/C=C/[C@H](O[C@@H]2O[C@H](C)[C@@H](O)[C@H](N)[C@@H]2O)C[C@@H]2O[C@](O)(C[C@@H](O)C[C@@H](O)[C@H](O)CC[C@@H](O)C[C@@H](O)CC(=O)O[C@H]1C)C[C@H](O)[C@H]2C(=O)O` [AMPHOTERICIN B]: the MIC stood at 1 µg/mL (≈ 1.08 µM) in the assay with Rhizopus arrhizus [1]; 0.03 µg/mL (≈ 0.0325 µM) in assay [2]; 0.09 µg/mL (≈ 0.0974 µM) in [3]; 2.83 µg/mL (≈ 3.06 µM) against Cunninghamella [4]; 0.14 µg/mL (≈ 0.152 µM) in the assay on Lichtheimia corymbifera [5]; 0.29 µg/mL (≈ 0.314 µM) in the assay with Rhizopus arrhizus [6]. For the same compound, the minimal inhibitory concentration (MIC) stood at 1.41 µg/mL (≈ 1.53 µM) with Actinomucor [7]; 0.05 µg/mL (≈ 0.0541 µM) in assay [8]; 8 µg/mL (≈ 8.66 µM) against Apophysomyces [9]; 0.45 µg/mL (≈ 0.487 µM) in [10]; 0.15 µg/mL (≈ 0.162 µM) in the assay on Mucor circinelloides [11]; 7.13 µg/mL (≈ 7.72 µM) in [12]. In addition, the MIC against Apophysomyces [13] was found to be 2 µg/mL (≈ 2.16 µM); in the assay on Mucor circinelloides [14], 0.05 µg/mL (≈ 0.0541 µM); in assay [15], 0.1 µg/mL (≈ 0.108 µM); against Lichtheimia corymbifera [16] it was 0.08 µg/mL (≈ 0.0866 µM); in the assay with Actinomucor [17], 1 µg/mL (≈ 1.08 µM); in the assay on Cunninghamella [18], 4 µg/mL (≈ 4.33 µM). The MIC in assay [19] was found to be 7.13 µg/mL (≈ 7.72 µM); in [20], 0.89 µg/mL (≈ 0.963 µM).

As for `CC[C@@H]([C@H](C)O)n1ncn(-c2ccc(N3CCN(c4ccc(OC[C@@H]5CO[C@@](Cn6cncn6)(c6ccc(F)cc6F)C5)cc4)CC3)cc2)c1=O` [POSACONAZOLE], the MIC in the assay on Rhizopus arrhizus [1] came out at 2 µg/mL (≈ 2.85 µM); in assay [2], 1.41 µg/mL (≈ 2.01 µM); in assay [3], 16 µg/mL (≈ 22.8 µM); in the assay with Cunninghamella [4], 0.25 µg/mL (≈ 0.357 µM); against Lichtheimia corymbifera [5], 0.67 µg/mL (≈ 0.956 µM); in the assay on Rhizopus arrhizus [6], 1.15 µg/mL (≈ 1.64 µM). Also, the MIC with Actinomucor [7] worked out at 0.125 µg/mL (≈ 0.178 µM); in [8], 0.16 µg/mL (≈ 0.228 µM); in the assay with Apophysomyces [9] it was 1 µg/mL (≈ 1.43 µM); in [10], 0.79 µg/mL (≈ 1.13 µM); against Mucor circinelloides [11], 2.69 µg/mL (≈ 3.84 µM); in assay [12], 2.3 µg/mL (≈ 3.28 µM). In addition, the MIC against Apophysomyces [13] was 0.5 µg/mL (≈ 0.713 µM); against Mucor circinelloides [14], 1.49 µg/mL (≈ 2.13 µM); in assay [15] it was 0.28 µg/mL (≈ 0.4 µM); with Lichtheimia corymbifera [16], 0.41 µg/mL (≈ 0.585 µM); against Actinomucor [17] it was 0.06 µg/mL (≈ 0.0856 µM); in the assay with Cunninghamella [18], 4 µg/mL (≈ 5.71 µM). Further, the MIC in [19] stood at 4.59 µg/mL (≈ 6.55 µM); in assay [20], 3.17 µg/mL (≈ 4.52 µM).

Consider `CCC(C)n1ncn(-c2ccc(N3CCN(c4ccc(OCC5COC(Cn6cncn6)(c6ccc(Cl)cc6Cl)O5)cc4)CC3)cc2)c1=O` (stereo not given) [ITRACONAZOLE], for which the MIC in the assay on Rhizopus arrhizus [1] is 6.96 µg/mL (≈ 9.86 µM); in [2] it was 16 µg/mL (≈ 22.7 µM); in assay [3], 16 µg/mL (≈ 22.7 µM); with Cunninghamella [4], 0.5 µg/mL (≈ 0.709 µM); against Lichtheimia corymbifera [5], 1.35 µg/mL (≈ 1.91 µM); in the assay with Rhizopus arrhizus [6], 4 µg/mL (≈ 5.67 µM). For the same compound, the MIC with Actinomucor [7] is 2 µg/mL (≈ 2.83 µM); in assay [8], 0.29 µg/mL (≈ 0.411 µM); against Apophysomyces [9], 16 µg/mL (≈ 22.7 µM); in assay [10] it was 1.59 µg/mL (≈ 2.25 µM); against Mucor circinelloides [11], 16 µg/mL (≈ 22.7 µM); in [12], 3.17 µg/mL (≈ 4.49 µM). The MIC turned out to be 16 µg/mL (≈ 22.7 µM) with Apophysomyces [13]; 11.9 µg/mL (≈ 16.8 µM) in the assay on Mucor circinelloides [14]; 0.44 µg/mL (≈ 0.624 µM) in assay [15]; 0.68 µg/mL (≈ 0.964 µM) in the assay on Lichtheimia corymbifera [16]; 2 µg/mL (≈ 2.83 µM) with Actinomucor [17]; 4 µg/mL (≈ 5.67 µM) in the assay on Cunninghamella [18]. Besides, the minimum inhibitory concentration (MIC) was 10.1 µg/mL (≈ 14.3 µM) in assay [19] and 3.56 µg/mL (≈ 5.05 µM) in assay [20].

Regarding `C[C@@H](c1ncncc1F)[C@](O)(Cn1cncn1)c1ccc(F)cc1F` [VORICONAZOLE], the minimum inhibitory concentration (MIC) against Rhizopus arrhizus [1] was determined as 16 µg/mL (≈ 45.8 µM); in assay [2], 16 µg/mL (≈ 45.8 µM); in [3] it was 16 µg/mL (≈ 45.8 µM); against Cunninghamella [4] it was 16 µg/mL (≈ 45.8 µM); with Lichtheimia corymbifera [5], 16 µg/mL (≈ 45.8 µM); in the assay on Rhizopus arrhizus [6], 12.1 µg/mL (≈ 34.7 µM). The MIC is 22.6 µg/mL (≈ 64.8 µM) in the assay with Actinomucor [7]; 5.28 µg/mL (≈ 15.1 µM) in assay [8]; 16 µg/mL (≈ 45.8 µM) against Apophysomyces [9]; 8 µg/mL (≈ 22.9 µM) in assay [10]; 16 µg/mL (≈ 45.8 µM) against Mucor circinelloides [11]; 16 µg/mL (≈ 45.8 µM) in [12]. Moreover, the MIC was determined as 16 µg/mL (≈ 45.8 µM) in the assay on Apophysomyces [13]; 16 µg/mL (≈ 45.8 µM) in the assay with Mucor circinelloides [14]; 6.06 µg/mL (≈ 17.3 µM) in [15]; 14.5 µg/mL (≈ 41.5 µM) with Lichtheimia corymbifera [16]; 16 µg/mL (≈ 45.8 µM) with Actinomucor [17]; 16 µg/mL (≈ 45.8 µM) in the assay with Cunninghamella [18]. Also, the MIC in assay [19] is 16 µg/mL (≈ 45.8 µM); in [20], 8.98 µg/mL (≈ 25.7 µM).
